What was measured:
Assay in all cases: relative viability (nuclei count vs DMSO), 5 days (fraction); higher = more cells survive
[1] = compound: Cn1cc(-c2cnn3c(N)c(Br)c([C@@H]4CCCNC4)nc23)cn1 + Cc1nc(NC(=O)N2CCC[C@H]2C(N)=O)sc1-c1ccnc(C(C)(C)C(F)(F)F)c1 [Alpelisib] (partner 2 µM)
Outline: (§1)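 Nuclei were stained with Hoechst during a one-step fixation (final 0.05% Triton X-100, 1% formaldehyde, 1 ug/ml Hoechst) carried out 5 days after dosing, then counted on 4× images. The cells, lung cancer lines in 1536-well plates, had been dosed by pin tool the day after seeding with one drug alone or a fixed anchor-drug dose plus five library-drug doses (not always all listed) in √10 steps. Relative viability is the nuclei count in treated wells divided by that in vehicle wells, and each value is the median of duplicate plates.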

[2] = compound: Cn1cc(-c2cnn3c(N)c(Br)c([C@@H]4CCCNC4)nc23)cn1 + O=C(CCCCCCC(=O)Nc1ccccc1)NO [Vorinostat] (partner 1 µM)
Outline: as §1

[3] = compound: Cn1cc(-c2cnn3c(N)c(Br)c([C@@H]4CCCNC4)nc23)cn1 + C[C@]1(O)C[C@@H](c2nc(-c3ccc4ccc(-c5ccccc5)nc4c3)c3c(N)nccn32)C1 [Linsitinib] (partner 1 µM)
Outline: as §1

[4] = compound: Cn1cc(-c2cnn3c(N)c(Br)c([C@@H]4CCCNC4)nc23)cn1 + CC1(C)CCC(c2ccc(Cl)cc2)=C(CN2CCN(c3ccc(C(=O)NS(=O)(=O)c4ccc(N[C@H](CCN5CCOCC5)CSc5ccccc5)c(S(=O)(=O)C(F)(F)F)c4)cc3)CC2)C1 [Navitoclax] (partner 0.5 µM)
Outline: as §1

Row | Cell Line | relative viability ([1]; first compound 0.05 µM) | relative viability ([1]; first compound 0.1581 µM) | relative viability ([1]; first compound 0.5 µM) | relative viability ([1]; first compound 1.581 µM) | relative viability ([1]; first compound 5 µM) | relative viability ([2]; first compound 0.05 µM) | relative viability ([2]; first compound 0.1581 µM) | relative viability ([2]; first compound 0.5 µM) | relative viability ([2]; first compound 1.581 µM) | relative viability ([2]; first compound 5 µM) | relative viability ([3]; first compound 0.05 µM) | relative viability ([3]; first compound 0.1581 µM) | relative viability ([3]; first compound 0.5 µM) | relative viability ([3]; first compound 1.581 µM) | relative viability ([3]; first compound 5 µM) | relative viability ([4]; first compound 0.05 µM) | relative viability ([4]; first compound 0.1581 µM) | relative viability ([4]; first compound 0.5 µM) | relative viability ([4]; first compound 1.581 µM) | relative viability ([4]; first compound 5 µM)
1 | IA-LM | 0.757 | 1.05 | 0.574 | 0.591 | 0.589 | 1.11 | 1.12 | 1.11 | 0.672 | 0.64 | 0.666 | 0.867 | 0.653 | 0.544 | 0.37 | 0.858 | 0.974 | 0.609 | 0.412 | 0.252
2 | H3255 | 0.776 | 0.722 | 0.684 | 0.626 | 0.494 | 0.738 | 0.872 | 0.914 | 0.746 | 0.411 | 0.989 | 1.05 | 0.929 | 0.769 | 0.684 | 0.561 | 0.507 | 0.379 | 0.531 | 0.29
3 | LOU-NH91 | 0.721 | 0.664 | 0.695 | 0.658 | 0.561 | 0.849 | 0.911 | 0.908 | 0.863 | 0.703 | 0.963 | 0.868 | 0.929 | 0.899 | 0.734 | 0.732 | 0.666 | 0.644 | 0.67 | 0.474
4 | NCI-H3122 | 0.79 | 0.856 | 0.806 | 0.717 | 0.869 | 0.999 | 1.12 | 0.987 | 0.88 | 1.11 | 1.02 | 1.06 | 0.964 | 1.08 | 1.09 | 1.06 | 1.05 | 1.05 | 1.03 | 1.11
5 | PC-3 [JPC-3] | 1.12 | 1.13 | 1.13 | 0.965 | 1.12 | 0.656 | 0.747 |  | 0.834 | 0.566 | 0.966 | 0.989 | 0.975 | 0.975 | 1.03 | 0.75 | 0.899 | 0.735 | 0.832 | 0.899
6 | NCI-H1651 | 1.08 | 1 | 1.01 | 0.479 | 0.434 | 0.543 | 0.587 | 0.512 | 0.531 | 0.39 | 0.949 | 0.977 | 0.869 | 0.574 | 0.356 | 1.06 | 1.36 | 0.865 | 0.555 | 0.408
7 | NCI-H2087 | 1.29 | 1.17 | 1.21 | 0.98 | 0.938 | 0.865 | 0.891 | 0.341 | 0.424 | 0.653 | 1.1 | 1.07 | 0.998 | 1.04 | 0.857 | 1.02 | 1.14 | 1.04 | 1.05 | 0.948

— the supplement of paper PMC10307832
